{"source": "patent US20100179188A1", "about": "“NITROXIDE RADICAL AS TREATMENT FOR NEURODEGENERATION” (Office of Technology Transfer, NIH, priority 2007, published 2010)", "key": {"IRP2−/− mice": {"system": "IRP2−/− mice", "experiment": "Hematocrit (anemia) of IRP2−/− mice on Tempo1 diet", "format": "in vivo", "protocol": "(§1) Diet: The mice were weaned 3-4 weeks after their birth. Immediately after weaning, mice were maintained on either a Tempo1-supplemented or control diet. In the Tempo1-supplemented diet, powdered Tempo1 was uniformly mixed with bacon-flavored mouse chow by a “cold press” technique (Bio-Serv, Frenchtown, N.J., USA) at a concentration of 10 mg/g of food. Bacon-flavored chow without Tempo1 was used as the control diet."}, "purified holo-IRP1 [1]": {"molecular_target": "T1, purified holo-IRP1 (Homo sapiens, UniProt P21399)", "T1 sequence (P21399 1-889)": "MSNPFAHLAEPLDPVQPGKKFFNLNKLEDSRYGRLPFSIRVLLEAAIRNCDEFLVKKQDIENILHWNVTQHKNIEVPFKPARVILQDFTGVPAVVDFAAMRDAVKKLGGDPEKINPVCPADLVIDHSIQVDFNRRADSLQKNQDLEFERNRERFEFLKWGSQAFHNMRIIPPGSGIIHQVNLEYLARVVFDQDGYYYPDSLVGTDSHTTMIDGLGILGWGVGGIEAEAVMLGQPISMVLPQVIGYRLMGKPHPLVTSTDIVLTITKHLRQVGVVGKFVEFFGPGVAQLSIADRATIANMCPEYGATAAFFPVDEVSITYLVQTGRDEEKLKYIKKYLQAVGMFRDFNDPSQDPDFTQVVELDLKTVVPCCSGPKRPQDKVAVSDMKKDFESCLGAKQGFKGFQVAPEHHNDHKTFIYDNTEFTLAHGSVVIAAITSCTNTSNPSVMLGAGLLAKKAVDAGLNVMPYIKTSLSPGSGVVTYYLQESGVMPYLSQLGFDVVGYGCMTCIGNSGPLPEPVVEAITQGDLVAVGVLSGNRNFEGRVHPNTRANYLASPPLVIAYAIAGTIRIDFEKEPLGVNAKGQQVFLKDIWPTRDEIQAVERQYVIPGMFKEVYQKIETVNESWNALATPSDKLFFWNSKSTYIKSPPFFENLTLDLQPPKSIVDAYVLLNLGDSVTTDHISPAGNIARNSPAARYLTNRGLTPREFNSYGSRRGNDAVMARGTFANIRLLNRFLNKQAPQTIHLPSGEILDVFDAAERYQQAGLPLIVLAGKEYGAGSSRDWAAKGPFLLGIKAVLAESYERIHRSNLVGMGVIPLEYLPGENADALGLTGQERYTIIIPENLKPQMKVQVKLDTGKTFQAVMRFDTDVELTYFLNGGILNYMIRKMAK", "experiment": "Aconitase activity of purified holo-IRP1, coupled solution assay", "format": "biochemical", "details": "purified protein, room air up to 2 h or 3 h at 37° C., vs control samples"}, "TfR1": {"system": "TfR1", "experiment": "Western blot of TfR1 in brain-region lysates of IRP2−/− mice", "format": "in vivo", "details": "lysates from cerebellum, brain-stem and forebrain of IRP2−/− mice, Tempo1 diet vs control diet", "protocol": "as §1\nTissue and lysate preparation: Animals were euthanized and tissues were frozen in liquid nitrogen immediately after harvesting, and stored at −80° C. under argon. Experiments were performed on tissues that were pulverized in liquid N2-cooled mortars in an anaerobic chamber, and then lysed in lysis buffer that was deaerated by cyclic freezethaw and air-removal with argon. […]\nLysates made from various brain regions of IRP2−/− mice that were maintained on a control diet or on a Tempo1-supplemented diet were analyzed for IRE binding activity of IRP1 and for TfR1, IRP1, and actin protein levels by gel-shift assay and Western blot. […] FIG. 3b is a quantification of the results as intensity of the bands relative to the control, represented here as 100%. Quantification was performed with the IQMac (IRP1 activity) or NIH Image (protein levels) program. Error bars represent the standard deviation calculated from the results of two different sets of animals."}, "purified holo-IRP1 [2]": {"molecular_target": "T1, purified holo-IRP1", "experiment": "IRE gel shift assay on purified holo-IRP1", "format": "biochemical", "protocol": "RNA mobility shift assays: Gel retardation assays were performed as described in Meyron-Holtz et al., EMBO J, 23, 386-395 (2004). Tissue lysates were prepared in an anaerobic chamber as described above in oxygen-depleted lysis buffer containing 10 mM HEPES (pH 7.2), 3 mM MgC12, 40 mM KCl, 5% glycerol, 0.2% Nonidet P-40, 5 mM DTT, 1 mM AEBSF, 10 μg/ml. Leupeptin and complete TM EDTA free protease inhibitor cocktail (Roche Applied Science, Indiana). Lysate (x μl) containing 10 μg of total protein was added to (12.5−x) μl of bandshift buffer containing 25 mM Tris-HCl (pH 7.5) and 40 mM KCl. The samples were incubated for 5 min at room temperature (RT) with 12.5 μl of a reaction cocktail containing 20% glycerol, 0.2 U/μl Super RNAsine (Ambion, Tex.), 0.6 μg/μl yeast t-RNA, 5 mM DTT and 20 nM 32P-labelled IRE from human ferritin H-chain gene in 25 mM Tris-HCl (pH 7.5) and 40 mM KCl. A measure of 20 μl of this reaction mixture was loaded into a 10% acrylamide/TBE gel, which was run at 200 V for 2.15 h, and then the gel was fixed, dried and exposed for autoradiography.\nSoum et al., J. Biol Inorg Chem, 8, 226-232 (2003). IRE-binding activity of purified holo-IRP1 (11 ng) was assessed by an IRE gel shift assay. Purified protein (11 ng) was incubated with 0.1% β-mercaptoethanol for 2 h at room temperature without (lane 1) or with (lane 2) 1 mM tempol. Sample in lane 3 was treated with 2% β-mercaptoethanol for 2 min after 2 h incubation without tempol."}}, "note": "Entries after “also recorded” stand apart in the source; their conditions may differ."}
{"smiles": "CC1(C)CC(O)CC(C)(C)N1[O]", "note": "[Tempo1]", "values": [{"measurement": "hematocrit", "setting": "IRP2−/− mice; IRP2−/− mice after 8 months of Tempo1 diet (untreated IRP2−/− 46±5, WT 52±2)", "result": "46±4"}, {"measurement": "mild anemia of IRP2−/− mice", "setting": "IRP2−/− mice; IRP2−/− mice treated with Tempo1", "result": "did not improve"}, {"measurement": "loss of aconitase activity", "setting": "purified holo-IRP1 [1]", "result": "comparable losses; also recorded: did not enhance"}, {"measurement": "TfR1 protein levels", "setting": "TfR1", "result": "markedly increased"}, {"measurement": "recruitment of IRE-binding activity", "setting": "purified holo-IRP1 [2]; holo-IRP1, 1.0 mM, 3 h at 37° C., FIG. 6b", "result": "almost completely recruited"}, {"measurement": "IRE binding activity vs IRP1 exposed to room air alone", "setting": "purified holo-IRP1 [2]; purified holo-IRP1, 2 h at room temperature and 3 h at 37° C.", "result": "much higher"}, {"measurement": "IRE binding activity of IRP1", "setting": "purified holo-IRP1 [2]; purified holo-IRP1 treated with Tempo1", "result": "increased"}]}
